# Where two headings read alike, the source gives them in different places. Bridge positions count the residues as written; N and C are the ends. Square brackets hold non-standard residues; d marks the D form. Peptide text beside a SMILES is read from it. * marks the point of attachment. ξ: configuration not given here. dBip = N[C@H](Cc1ccc(-c2ccccc2)cc1)C(=O)O; Octanoyl(6-Me) = CCC(C)CCCCC(=O)*; X3 = CCCCCCCCN1CCNC[C@H]1C(=O)*; dCha = N[C@H](CC1CCCCC1)C(=O)O; Thr(3ξ) = CC(O)[C@H](N)C(=O)O; X7 = NCC(CC(=O)*)c1ccccc1; Dab = NCC[C@H](N)C(=O)O; Dap = NC[C@H](N)C(=O)O
# Experiments:
# Type in all cases: cell-based
# Acinetobacter baumannii = test system: Acinetobacter baumannii
# Outline: (§1)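 Each compound was tested against a panel of up to nine strains per Gram-negative species. The panel included strains that show elevated MICs to Polymyxin. Activity was recorded as MIC in μg/mL.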
# Klebsiella pneumoniae = test system: Klebsiella pneumoniae
# Outline: as §1
# Pseudomonas aeruginosa = test system: Pseudomonas aeruginosa
# Outline: as §1
# Escherichia coli = test system: Escherichia coli
# Outline: as §1
# HK-2 cells = test system: HK-2 cells
# Description: Values are reported relative to Polymyxin B.
Compound,MIC A. baumanii 053 (Acinetobacter baumannii) [µg/mL],MIC A. baumanii 056 (Acinetobacter baumannii) [µg/mL],MIC A. baumanii ATCC BAA-747 (Acinetobacter baumannii) [µg/mL],MIC A. baumanii NCTC 13424 (Acinetobacter baumannii) [µg/mL],MIC K. pneumoniae 063 (Klebsiella pneumoniae) [µg/mL],MIC K. pneumoniae 065 (Klebsiella pneumoniae) [µg/mL],MIC K. pneumoniae ATCC 4352 (Klebsiella pneumoniae) [µg/mL],MIC K. pneumoniae ATCC 13882 (Klebsiella pneumoniae) [µg/mL],MIC P. aeruginosa 068 (Pseudomonas aeruginosa) [µg/mL],MIC P. aeruginosa 070 (Pseudomonas aeruginosa) [µg/mL],MIC P. aeruginosa ATCC 27853 (Pseudomonas aeruginosa) [µg/mL],MIC P. aeruginosa CCUG 59347 (Pseudomonas aeruginosa) [µg/mL],MIC E. coli 058 (Escherichia coli) [µg/mL],MIC E. coli 061 (Escherichia coli) [µg/mL],MIC E. coli ATCC 25922 (Escherichia coli) [µg/mL],HK-2 IC50 (HK-2 cells) [µg/mL],further results
"CCCCCCCCN1CCNC[C@H]1C(=O)N[C@H](C(=O)N[C@@H](CN)C(=O)N[C@H]1CCNC(=O)[C@H]([C@@H](C)O)NC(=O)[C@H](CCN)NC(=O)[C@H](CCN)NC(=O)[C@H](CC(C)C)NC(=O)[C@@H](Cc2ccc(-c3ccccc3)cc2)NC(=O)[C@H](CCN)NC1=O)C(C)O (stereo partly drawn) [Example 30, (S)-1-Octylpiperazine-2-carbonyl L-Thr-L-Dap-polymyxin [D-(4-phenyl Phe)]-6 heptapeptide.] (X3-[Thr(3ξ)][Dap][Dab][Dab][dBip]L[Dab][Dab]T; lactam 3-C)",4,2,1,2,4,1,1,1,2,2,1,2,1,2,1,4,–
"CCCCC(CCN)C(=O)N[C@H](C(=O)N[C@@H](CN)C(=O)N[C@H]1CCNC(=O)[C@H]([C@@H](C)O)NC(=O)[C@H](CCN)NC(=O)[C@H](CCN)NC(=O)[C@H](CC(C)C)NC(=O)[C@@H](CC2CCCCC2)NC(=O)[C@H](CCN)NC1=O)[C@@H](C)O (single isomer, unassigned; isomer 2) [Example 41, 2-(2-aminoethyl) hexanoyl L-Thr-L-Dap-polymyxin [D-cyclohexylalanine]-6 heptapeptide. Isomer 2]",>32,32,0.06,0.06,16,1.5,–,0.125,4,4,0.5,0.5,4,8,0.125,206,MIC E. coli NCTC 9001 (Escherichia coli): 0.06 µg/mL; cytotoxicity (HK-2 cells): significantly lower cytotoxicity compared with C6
"2-(2- Aminoethyl) octanoyl L- Thr-L-Dap- polymyxin heptapeptide [Example C6, reference compound]",–,–,–,–,–,–,–,–,–,–,–,–,–,–,–,–,MIC A. baumanii 053 (Acinetobacter baumannii; strain 053): 32 µg/mL; MIC A. baumanii 056 (Acinetobacter baumannii; strain 056): 32 µg/mL; MIC A. baumanii ATCC BAA-747 (Acinetobacter baumannii; strain ATCC BAA-747): 0.06 µg/mL; MIC A. baumanii NCTC 13424 (Acinetobacter baumannii; strain NCTC 13424): 0.03 µg/mL; MIC K. pneumoniae 063 (Klebsiella pneumoniae; strain 063): 8 µg/mL; MIC K. pneumoniae 065 (Klebsiella pneumoniae; strain 065): 0.25 µg/mL; MIC K. pneumoniae ATCC 4352 (Klebsiella pneumoniae; strain ATCC 4352): 0.06 µg/mL; MIC K. pneumoniae ATCC 13882 (Klebsiella pneumoniae; strain ATCC 13882): 0.125 µg/mL; MIC P. aeruginosa 068 (Pseudomonas aeruginosa; strain 068): 2 µg/mL; MIC P. aeruginosa 070 (Pseudomonas aeruginosa; strain 070): 8 µg/mL; MIC P. aeruginosa ATCC 27853 (Pseudomonas aeruginosa; strain ATCC 27853): 0.125 µg/mL; MIC P. aeruginosa CCUG 59347 (Pseudomonas aeruginosa; strain CCUG 59347): 0.125 µg/mL; MIC E. coli 058 (Escherichia coli; strain 058): 1 µg/mL; MIC E. coli 061 (Escherichia coli; strain 061): 8 µg/mL; MIC E. coli ATCC 25922 (Escherichia coli; strain ATCC 25922): 0.125 µg/mL; MIC E. coli NCTC 9001 (Escherichia coli; strain NCTC 9001): 0.06 µg/mL; HK-2 IC50 (HK-2 cells; HK-2 cells): 51 µg/mL
"CCCCCCCCC1CNCC1C(=O)N[C@H](C(=O)N[C@@H](CCN)C(=O)N[C@H]1CCNC(=O)[C@H]([C@@H](C)O)NC(=O)[C@H](CCN)NC(=O)[C@H](CCN)NC(=O)[C@H](CC(C)C)NC(=O)[C@@H](Cc2ccc(-c3ccccc3)cc2)NC(=O)[C@H](CCN)NC1=O)C(C)O (single isomer, unassigned; isomer 2) [Example 8, trans-4-octylpyrrolidine-3-carbonyl polymyxin [D-(4-phenyl)Phe]-6] nonapeptide. Isomer 2]",4,2,1,–,–,1,1,–,2,2,1,–,2,4,1,3,MIC K. pneumoniae 062 (Klebsiella pneumoniae): 4 µg/mL; MIC K. pneumoniae 064 (Klebsiella pneumoniae): 1 µg/mL; MIC K. pneumoniae 066 (Klebsiella pneumoniae): 0.5 µg/mL; MIC K. pneumoniae 067 (Klebsiella pneumoniae): 8 µg/mL; MIC E. coli 059 (Escherichia coli): 1 µg/mL; MIC E. coli 060 (Escherichia coli): 2 µg/mL
CCC(C)CCCCC(=O)N[C@@H](CCN)C(=O)N[C@H](C(=O)N[C@@H](CCN)C(=O)N[C@H]1CCNC(=O)[C@H](C(C)O)NC(=O)[C@H](CCN)NC(=O)[C@H](CCN)NC(=O)[C@H](CC(C)C)NC(=O)[C@@H](CC2CCCCC2)NC(=O)[C@H](CCN)NC1=O)C(C)O (some centres unmarked) [Example 22] ({Octanoyl(6-Me)}-[Dab][Thr(3ξ)][Dab][Dab][Dab][dCha]L[Dab][Dab][Thr(3ξ)]; lactam 4-C),64,32,0.5,–,32,1,0.5,–,4,4,1,–,2,8,0.5,17,MIC K. pneumoniae 062 (Klebsiella pneumoniae): 16 µg/mL; MIC K. pneumoniae 064 (Klebsiella pneumoniae): 4 µg/mL; MIC K. pneumoniae 066 (Klebsiella pneumoniae): 4 µg/mL; MIC K. pneumoniae 067 (Klebsiella pneumoniae): 64 µg/mL; MIC E. coli 059 (Escherichia coli): 2 µg/mL; MIC E. coli 060 (Escherichia coli): 4 µg/mL
"CC(C)C[C@@H]1NC(=O)[C@@H](CC2CCCCC2)NC(=O)[C@H](CCN)NC(=O)[C@@H](NC(=O)[C@H](CN)NC(=O)[C@@H](NC(=O)C(CCN)c2ccccc2)C(C)O)CCNC(=O)[C@H]([C@@H](C)O)NC(=O)[C@H](CCN)NC(=O)[C@H](CCN)NC1=O (single isomer, unassigned; isomer 2) [Example 38, 4-amino-2-phenylbutanoyl L-Thr-L-Dap-polymyxin [D-cyclohexylalanine]-6 heptapeptide. isomer 2]",32,8,0.06,0.03,32,1,–,0.125,4,4,0.25,0.25,2,16,0.06,255,MIC E. coli NCTC 9001 (Escherichia coli): 0.06 µg/mL
"CC(C)C[C@@H]1NC(=O)[C@@H](CC2CCCCC2)NC(=O)[C@H](CCN)NC(=O)[C@@H](NC(=O)[C@H](CN)NC(=O)[C@@H](NC(=O)CC(CN)c2ccccc2)C(C)O)CCNC(=O)[C@H]([C@@H](C)O)NC(=O)[C@H](CCN)NC(=O)[C@H](CCN)NC1=O (stereo partly drawn) [Example 39, 4-amino-3-phenylbutanoyl L-Thr-L-Dap-polymyxin [D-cyclohexylalanine]-6 heptapeptide.] (X7-[Thr(3ξ)][Dap][Dab][Dab][dCha]L[Dab][Dab]T; lactam 3-C)",–,–,–,–,–,–,–,–,–,–,–,–,–,–,–,–,MIC A. baumanii 053 (Acinetobacter baumannii; strain 053): 32 µg/mL; MIC A. baumanii 056 (Acinetobacter baumannii; strain 056): 64 µg/mL; MIC A. baumanii ATCC BAA-747 (Acinetobacter baumannii; strain ATCC BAA-747): 0.06 µg/mL; MIC A. baumanii NCTC 13424 (Acinetobacter baumannii; strain NCTC 13424): 0.03 µg/mL; MIC K. pneumoniae 063 (Klebsiella pneumoniae; strain 063): 64 µg/mL; MIC K. pneumoniae 065 (Klebsiella pneumoniae; strain 065): 4 µg/mL; MIC K. pneumoniae ATCC 13882 (Klebsiella pneumoniae; strain ATCC 13882): 0.125 µg/mL; MIC P. aeruginosa 068 (Pseudomonas aeruginosa; strain 068): 4 µg/mL; MIC P. aeruginosa 070 (Pseudomonas aeruginosa; strain 070): 4 µg/mL; MIC P. aeruginosa ATCC 27853 (Pseudomonas aeruginosa; strain ATCC 27853): 0.5 µg/mL; MIC P. aeruginosa CCUG 59347 (Pseudomonas aeruginosa; strain CCUG 59347): 0.5 µg/mL; MIC E. coli 058 (Escherichia coli; strain 058): 4 µg/mL; MIC E. coli 061 (Escherichia coli; strain 061): 32 µg/mL; MIC E. coli ATCC 25922 (Escherichia coli; strain ATCC 25922): 0.125 µg/mL; MIC E. coli NCTC 9001 (Escherichia coli; strain NCTC 9001): 0.06 µg/mL; HK-2 IC50 (HK-2 cells; HK-2 cells): 337 µg/mL
